Here are results for 18 compounds from patent publication US8058243B2, “Method for treating a brain cancer with ifenprodil” (HSC Research and Development Limited Partnership, priority 2006, dated 2011).

Structures can show the parent of a compound that is named as a salt. Where two headings read alike, the source gives them in different places.

This assay relates to murine neural precursor cells (neurosphere cultures). The experiment in a line: HTS of LOPAC library against secondary neurosphere cultures, MTT proliferation assay at 3 μM, day 7 (z score, P value). Format: cell-based, mouse.
Where [1] appears, read: LOPAC primary screen, neurosphere MTT proliferation, 3 μM, day 7.
Setting [2] is: yes/no: significantly inhibited neurosphere proliferation (P<0.01) in the primary screen.
The mark [3] stands for this setting: yes/no: significantly inhibited neurosphere proliferation (P<0.01) in primary screen.
The mark [4] stands for this setting: LOPAC library screen, 3 μM, MTT, neurosphere cultures.
Where [5] appears, read: primary LOPAC screen, 3 μM, MTT, neurosphere proliferation.
[6] abbreviates: yes = significantly inhibited neurosphere proliferation (P<0.01) in the primary screen.
Where [7] appears, read: yes/no: significantly inhibited neurosphere proliferation in primary screen.
Setting [8] is: LOPAC library screen at 3 μM, secondary neurosphere cultures, MTT.

`C[n+]1cc2c3c(ccc2c2ccc4cc5c(cc4c21)OCO5)OCO3` [Sanguinarine chloride]: the “Z Score” value was −10.01. This compound also displayed a Z score under setting [1] of −10.008. For the same compound, under setting [2], the Activity result is on record as “yes”.
`C[C@@H](N)[C@H]1CC[C@H](C(=O)Nc2ccncc2)CC1` [Y-27632 dihydrochloride]: under “168 h, 3 µM”, the “Z Score” value is given as −0.1255 and the Z score is −0.125. The Activity result under setting [3] was “no”.
Regarding `CC1(C(=O)O)C2CCC(O2)C1(C)C(=O)O` (centres unmarked) [Cantharidic Acid], the “Z Score” value is recorded as −0.5529. This compound displayed a Z score (LOPAC screen, neurosphere MTT proliferation, 3 μM, day 7) of −0.553. Besides, under setting [3], the Activity entry is reported as “no”.
For `CNCC[C@@H](Oc1ccccc1C)c1ccccc1` [Tomoxetine], the Activity result is “no”. For the same compound, the “Z Score” value under setting [4] is given as 0.1672. Under setting [5], this compound returned a Z score of 0.167.
With `CC(C)c1ccc2c(c1)c(SC(C)(C)C)c(CC(C)(C)C(=O)O)n2Cc1ccc(Cl)cc1` [MK-886], the “Z Score” value is on record as −1.549. The Z score under setting [1] is on record as −1.549. Besides, the Activity entry under setting [6] is given as “no”.
Turning to `CCCCNc1ccc(C(=O)OCCN(C)C)cc1` [Tetracaine hydrochloride], the “Z Score” value under setting [4] is on record as −0.01953. The compound also displayed a Z score under setting [5] of −0.020. Also, the Activity result (yes/no: significantly inhibited neurosphere proliferation in the primary screen) is “no”.
On to `O=C(O)[C@H]1CCCN[C@H]1C(=O)O` (racemic) [(±)-cis-Piperidine-2,3-dicarboxylic acid], for which the Z score (168 h, 3 µM) is on record as 0.155. In addition, the Activity result under setting [7] is given as “no”.
Regarding `O=C1NCC2(CCN(CCc3ccccc3)CC2)O1` [Fenspiride hydrochloride], the “Z Score” value under setting [8] was −0.5762. Under setting [1], this compound showed a Z score of −0.576. Moreover, the Activity entry under setting [3] is on record as “no”.
Consider `O=C(O)C1=CC(=C(c2ccc(O)c(C(=O)O)c2)c2ccc(O)c(C(=O)O)c2)C=CC1=O` [Aurintricarboxylic acid], for which, for the setting “168 h, 3 µM”, the “Z Score” value stood at 0.5709 and the Z score was found to be 0.571.
Take `CC(C)c1cccc(C(C)C)c1O` [Propofol]: the Activity result is recorded as “no”, the “Z Score” value was 0.3768 and the Z score was 0.377.
Consider R(−)-N6-(2-Phenylisopropyl)adenosine, for which the “Z Score” value (LOPAC library screen, 3 μM, MTT, secondary neurosphere cultures, day 7) is recorded as −2.023. The compound further returned a Z score under setting [1] of −2.023. Moreover, the Activity result under setting [7] is on record as “no”.
Regarding `CCCCCCCCCCCCCCCCCC(=O)NCC(COP(=O)([O-])OCC[N+](C)(C)C)OCC` (racemic) [rac-2-Ethoxy-3-octadecanamido-1-propylphosphocholine], the “Z Score” value under setting [8] was −1.112. In addition, under setting [1], the Z score is given as −1.112. Also, the Activity result under setting [3] is given as “no”.
On to `CCOC(=O)c1cnc2c(cnn2CC)c1NN=C(C)C` [Etazolate hydrochloride], for which, for the setting “168 h, 3 µM”, the “Z Score” value is given as −0.2465 and the Z score was −0.247. In addition, under setting [3], the Activity result was “no”.
For `CCCN(CCC)C1Cc2cc(OC)c(OC)cc2C1.O=C(O)/C=C\C(=O)O` [U-99194A maleate], the “Z Score” value came out at 1.255.
Consider `CN1CCN(CCCN2c3ccccc3Sc3ccc(C(F)(F)F)cc32)CC1` [Trifluoperazine dihydrochloride], for which, under “168 h, 3 µM”, the “Z Score” value is recorded as −9.305 and the Z score is listed as −9.305. The Activity result under setting [2] was “yes”.
Consider `O=c1c(-c2ccc(O)cc2)coc2cc(O)cc(O)c12` [Genistein], for which the “Z Score” value under setting [8] is recorded as −0.4689. This compound registered a Z score under setting [1] of −0.469. Further, under setting [2], the Activity entry is listed as “no”.
Consider `CN1C(C(=O)Nc2ccccn2)=C(O)c2ccccc2S1(=O)=O` [Piroxicam], for which the “Z Score” value under setting [4] came out at 0.2527. Besides, under setting [1], the Z score is given as 0.253. The Activity result under setting [6] is reported as “no”.
As to `C[C@]12CC[C@@H]3c4ccc(O)cc4CC[C@H]3[C@@H]1CC[C@@H]2O` [beta-Estradiol], the “Z Score” value was −0.5623. Besides, the Z score under setting [1] is on record as −0.562. The Activity result under setting [3] is recorded as “no”.
